Patent publication US7148405B2, “Enzymes responsible for the metabolism of cis-zeatin” (State of Oregon Acting by and through the State Board of …, priority 2000, dated 2006)

Tests used:
β-glucosidase = settings: reaction product incubated with β-glucosidase for 4 hours
Description: (§1) For FIG. 2B, 200 μL of supernatant obtained from cell culture was incubated with approximately 1 nmol of labeled zeatin and UDPG for 2 hours. For FIG. 2C, Approximately 0.4 nmole of reaction product obtained from reactions similar to FIG. 2B was incubated with β-glucosidase for 4 hours to reconvert the product to zeatin.

[1] = target: T1, cis-zeatin O-glucosyltransferase (cis-ZOG1) (Zea mays, UniProt Q93XP7); experiment: Enzyme assay of recombinant cis-ZOG1 with cytokinin substrates and UDPG, products analysed by HPLC; assay type: biochemical; settings: recombinant protein, UDPG as glycosyl donor, HPLC analysis
T1 construct: His7 (seven histidine residues, from the vector); made in house; host or cells: E. coli XL1 Blue
T1 sequence (Q93XP7 1-467): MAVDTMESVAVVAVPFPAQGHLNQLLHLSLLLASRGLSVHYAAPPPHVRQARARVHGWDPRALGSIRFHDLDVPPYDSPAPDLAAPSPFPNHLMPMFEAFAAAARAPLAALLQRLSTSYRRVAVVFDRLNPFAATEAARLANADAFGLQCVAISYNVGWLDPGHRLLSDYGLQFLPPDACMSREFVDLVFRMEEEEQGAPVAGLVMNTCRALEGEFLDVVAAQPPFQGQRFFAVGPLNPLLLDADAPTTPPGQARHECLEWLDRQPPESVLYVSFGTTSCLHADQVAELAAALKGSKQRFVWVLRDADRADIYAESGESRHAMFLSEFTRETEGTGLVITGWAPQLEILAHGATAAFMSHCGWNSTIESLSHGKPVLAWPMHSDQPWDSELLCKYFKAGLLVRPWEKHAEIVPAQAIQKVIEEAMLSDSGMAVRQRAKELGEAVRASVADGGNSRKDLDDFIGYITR
Description: as §1
3. Isolation of Recombinant Proteins. To obtain recombinant proteins, the ORF of the selected cDNA was amplified by PCR using primers (SEQ ID NOS: 9 and 10) that generated products having an NcoI site at the 5′ and a XbaI site at the 3′ terminus. The PCR products were digested with NcoI and XbaI restriction enzymes and ligated into a p Trc 99A expression vector (Pharmacia) modified to contain seven histidine residues (CAT or CAC), and transformed into the XL1 Blue cell line. Colonies were selected on AMP-LB plates. […] After 4 hours cells were collected and frozen at −80 C overnight. Cells were resuspended in 0.5 mL of 0.2 M Tris pH 7.5 containing 1 mg/mL of lysozyme. Samples were incubated on ice for 30 minutes, frozen for 10 minutes at −80 C, thawed in cold water, and then DNAase (1 μg/10 μl supernatant) was added. After 10 minutes at room temperature, the samples were sonicated with four 15-second bursts to release proteins from cells. Soluble proteins were collected after centrifugation and used for enzyme assays.
4. Enzyme assays and analysis of reaction products. Enzyme activity was determined as reported previously (Dixon et al., Plant Physiol. 90:1316–1321, 1989). Briefly, a specified amount of recombinant protein, ^14C-labeled cis-zeatin (specific activity of 24 mCi/mmol), and a glycosyl donor (4 mM of UDPG) were incubated in MgCl2 (0.07 M) in 0.17 M Tris, pH 8.0. Reaction products were then analyzed by HPLC (Dixon et al., Plant Physiol. 90:1316–1321, 1989).

Compound	re-conversion to cis-zeatin by β-glucosidase (β-glucosidase)	use as substrate by the recombinant enzyme (O-glucosylation) [1]
cis-zeatin O-glucoside	re-conversion of the reaction product to cis-zeatin by β-glucosidase	–
CC(CO)CCNc1ncnc2nc[nH]c12 (stereo not drawn) [dihydrozeatin]	–	does not use
CC(CO)CCNc1ncnc2c1ncn2[C@@H]1O[C@H](CO)[C@@H](O)[C@H]1O (stereo partly drawn) [ribosyldihydrozeatin]	–	does not use
C/C(=C\CNc1ncnc2[nH]cnc12)CO [trans-zeatin]	–	does not use
C/C(=C\CNc1ncnc2c1ncn2[C@@H]1O[C@H](CO)[C@@H](O)[C@H]1O)CO (relative stereo) [trans-ribosylzeatin]	–	does not use
C/C(=C/CNc1ncnc2nc[nH]c12)CO [cis-zeatin]	–	formation of O-glucosyl-cis-zeatin from cis-zeatin
